This series is described as follows: Plasma PK of brensocatib, BID vs QD oral dosing, C57BL/6 mice. The format is in vivo. The settings on record: both sexes; for AUC(0-t): first 24 h. As for the experimental part:
A dose frequency study was performed in male and female mice (C57BL/6 & BALB/c) and in male and female rats (Sprague Dawley & Wistar) investigating twice daily (BID) versus once daily (QD) brensocatib administration.
Briefly, animals were weighed and randomized into different treatment groups. In total, three different dosing levels of brensocatib were tested in each species and strain; each QD dosing level was equivalent to 1.5-times the matching daily BID dose. For BID dosing, the second daily dose was administered 8-h post the morning dose. C57BL/6 mice were dosed either BID or QD for 7 consecutive days at 0/0, 0.5/0.75, 2/3, and 20/30 mg/kg/day (BID/QD). BALB/c mice were dosed for 7 consecutive days at 0/0, 0.2/0.3, 2/3, and 20/30 mg/kg/day (BID/QD). SD rats were dosed for 9 consecutive days at 0/0, 0.2/0.3, 2/3, and 20/30 mg/kg/day (BID/QD). Wistar rats were dosed for 7 consecutive days at 0/0, 0.2/0.3, 2/3, and 20/30 mg/kg/day (BID/QD).
For sparse PK analysis via LC-MS/MS, plasma was collected from animals during the first 24 h of dosing at prescribed timepoints. The timepoints included 1, 3, 8, and 24 h post initial dose for QD groups, and 1, 3, 8, 9, 11, and 24 h post initial dose for BID groups. Note that the 8- and 24-h plasma samples were prior to the afternoon dose for BID groups and prior to the second day dose for all groups, respectively. See section Quantification of Plasma Brensocatib Concentrations for details.
Blood was collected via the tail-vein technique and centrifuged to separate and collect the plasma. The resulting plasma samples were stored at −20°C or lower until LC-MS/MS analysis.
The plasma concentration of brensocatib was quantified by liquid chromatography, tandem mass spectrometry (LC-MS/MS), a Sciex API6500 mass spectrometer (SCIEX, Framingham, MA). Two brensocatib stock solutions were prepared, one for the preparation of the 8-point standard (STD) curve spiking solutions and the other for the preparation of the quantitative control spiking solutions (QCs) at three levels. The STD curve and QCs were prepared by 2% spiking from the spiking solutions into mouse or rat plasma. The samples were extracted using a protein precipitation method, where 10 µL of sample was mixed with 100 µL of internal standard working solution (100 ng/mL ^6C13-brensocatib in methanol), vortexed for 5 s, and centrifuged at 21,130 × g at 4°C for 15 min. The supernatant was mixed with an equal volume of water and 10 μL was injected into a Phenomenex Kinetex Biphenyl column (3.0 mm × 50 mm; 2.6 μm; 65°C; 0.8 mL/min) with an elution gradient consisting of mobile phase A (10 mM ammonium formate) and mobile phase B (methanol) over 2 min from 5% to 95% B. The mass spectrometer was equipped with an atmospheric-pressure chemical ionization source operating in positive mode.
Individual plasma concentrations were plotted and the area under the curve (AUC) was calculated using the trapezoid method. The elimination rate constant (k e ) was calculated as the negative natural log of the plasma concentration over time (Eq. 1) starting at the max concentration (C max) after the most recent dose to the last measurable plasma concentration between doses. The calculated k e was used to define the half-life (t 1/2 ) based on Eq. 2; where 0.693 is the natural log of 2 and assumes a first-order reaction. ke=−ln∆C/∆t (1) t1/2=0.693/ke (2)

Structures are written as SMILES. Like-named read-outs stand apart in the source and are kept apart here.

Consider `Cn1c(=O)oc2ccc(-c3ccc(C[C@@H](C#N)NC(=O)[C@@H]4CNCCCO4)cc3)cc21` [brensocatib], for which the half-life reads like this: (C57BL/6, BALB/c, mouse, oral, mice (both strains), across BID and QD regimens, sparse PK, read-out: half-life (overall) (converted)) about 2.5 h; (C57BL/6, mouse, po, 0.5 mg/kg/day, C57BL/6 mice, oral BID, 0.5 mg/kg/day, evening dose, read-out: t1/2, PM dose (converted)) 0.63 ± 0.01 h; (C57BL/6, mouse, po, 0.5 mg/kg/day, C57BL/6 mice, oral BID, 0.5 mg/kg/day, morning dose, read-out: t1/2, AM dose (converted)) 0.71 ± 0.23 h; (C57BL/6, mouse, po, 0.75 mg/kg/day, C57BL/6 mice, oral QD, 0.75 mg/kg/day, read-out: t1/2, AM dose (converted)) 9.62 ± 0.95 h; (C57BL/6, mouse, po, 2 mg/kg/day, C57BL/6 mice, oral BID, 2 mg/kg/day, evening dose, read-out: t1/2, PM dose (converted)) 2.35 ± 0.35 h; (C57BL/6, mouse, po, 2 mg/kg/day, C57BL/6 mice, oral BID, 2 mg/kg/day, morning dose, read-out: t1/2, AM dose (converted)) 2.07 ± 0.42 h. Besides, the half-life is 6.38 ± 0.56 h (C57BL/6, mouse, po, 3 mg/kg/day, C57BL/6 mice, oral QD, 3 mg/kg/day, read-out: t1/2, AM dose (converted)); 2.36 ± 0.05 h (C57BL/6, mouse, po, 20 mg/kg/day, C57BL/6 mice, oral BID, 20 mg/kg/day, evening dose, read-out: t1/2, PM dose (converted)); 2.41 ± 0.42 h (C57BL/6, mouse, po, 20 mg/kg/day, C57BL/6 mice, oral BID, 20 mg/kg/day, morning dose, read-out: t1/2, AM dose (converted)); 3.01 ± 0.18 h (C57BL/6, mouse, po, 30 mg/kg/day, C57BL/6 mice, oral QD, 30 mg/kg/day, read-out: t1/2, AM dose (converted)). Also, the AUC(0-t) reads like this: (mouse, C57BL/6 mice, oral BID, 0.5 mg/kg/day, read-out: AUC0–24h) 294 ± 49 ng·h/mL; (mouse, C57BL/6 mice, oral BID, 0.5 mg/kg/day, read-out: AUC(0–24)) 0.7 ± 0.12 µM·h; (mouse, C57BL/6 mice, oral BID, 2 mg/kg/day, read-out: AUC0–24h) 2010 ± 154 ng·h/mL; (mouse, C57BL/6 mice, oral BID, 2 mg/kg/day, read-out: AUC(0–24)) 4.79 ± 0.37 µM·h; (mouse, C57BL/6 mice, oral BID, 20 mg/kg/day, read-out: AUC0–24h) 15900 ng·h/mL; (mouse, C57BL/6 mice, oral BID, 20 mg/kg/day, read-out: AUC(0–24)) 37.7 ± 8.33 µM·h. Besides, the AUC(0-t) (mouse, C57BL/6 mice, oral QD, 0.75 mg/kg/day, read-out: AUC0–24h) worked out at 735 ± 108 ng·h/mL; the AUC(0-t) (mouse, C57BL/6 mice, oral QD, 0.75 mg/kg/day, read-out: AUC(0–24)) turned out to be 1.75 ± 0.26 µM·h; the AUC(0-t) (mouse, C57BL/6 mice, oral QD, 3 mg/kg/day, read-out: AUC0–24h) was 2840 ± 302 ng·h/mL; the AUC(0-t) (mouse, C57BL/6 mice, oral QD, 3 mg/kg/day, read-out: AUC(0–24)) amounted to 6.76 ± 0.72 µM·h; the AUC(0-t) (mouse, C57BL/6 mice, oral QD, 30 mg/kg/day, read-out: AUC0–24h) is 52600 ng·h/mL; the AUC(0-t) (mouse, C57BL/6 mice, oral QD, 30 mg/kg/day, read-out: AUC(0–24)) is 125 ± 16 µM·h.
